# Measurements reported in patent US20260055150A1, “GRAIL-1 PEPTIDE PRODUCTS AND METHODS” (REGENTS OF THE UNIVERSITY OF MICHIGAN, priority 2022, published 2026).
# “Also recorded” adds a separate entry of the source. Where a SMILES comes first, the peptide text is derived from it. Where no end group is shown, it is not given here.
# Legend:
# DNAJA1 = experiment: Peptide pull down assay with recombinant DNAJA1; format: binding; conditions: NHS activated Sepharose beads, Western blot
# Protocol: Briefly, 1 mg of peptide was dissolved in 1 ml of coupling buffer (0.2 M NaHCO3, 0.5 M NaCl, pH 8.3). Peptides were conjugated to NHS-activated resin by incubating 100 μL NHS bead slurry with 200 μL peptide solution for 2 hours at room temperature (RT). Unbound sites were blocked with quenching buffer (0.5 M ethanolamine, 500 mM NaCl). Resin peptide conjugates were washed once with low pH (0.1 M acetate, 0.5 M NaCl, pH 5) and high pH buffer (0.1 M Tris HCl, pH 8.0) and equilibrated with lysis buffer 50 mM HEPES, 150 mM NaCl, 0.2% NP-40, protease inhibitor cocktail, pH 7.5. Purified HSP40 protein was procured from […] (cat #). Purified protein was diluted in lysis buffer. Approximately 40 nM protein was incubated with peptide coupled to NHS beads and incubated for 2 hours at RT. Unbound proteins were removed by centrifugation and beads were washed with washing buffer (50 mM HEPES, 300 mM NaCl, 0.2% NP-40, pH 7.5). Bound proteins were obtained by boiling beads with 1× Laemmli buffer. […] To confirm, thermal stability assays (TSA) were performed. TSA was carried out using QuantStudio™ 7 Flex Real-Time PCR System. […] The plates were covered with optical foil during the reaction in the thermal cycler. […] The Instrument was programmed in the melt curve mode with ROX reagent detection and Fast speed run. The reporter was selected as Rox and none for quencher. Each melt curve was programmed as follows: 25° C. for 15 sec, followed by increase in temperature at the speed of 0.03° C./s up to 95° C. and finally 95° C. for 15 sec. The raw data was exported to Protein Thermal Shift™ Software (Applied Biosystems) for analysis. Melting temperature was calculated using the melt curve. […] To further test functionality, an in vitro ATPase activity assay was performed using purified Hsp40 and Hsp70 proteins. […] Pep 1 was redesignated “Pep J”.
# CpD cells = experiment: Clonogenic survival of mutant p53 driven CpD cells
# Protocol: The effects of different siRNAs (e.g., GRAIL Iso1-1, GRAIL Iso1-2, TP53) on clonogenic survival of different BE (CpA, CpD) and EAC (Flo1, OE19, and OE33) cell lines were determined by normalizing the survival fraction of control siRNA-treated group as 1.
# For this purpose, two BE cell lines were used, CpA (with wild type p53) and CpD (carrying mutant p53). […] In brief, 3000 cells in 100 μl of complete medium were plated per well in a 96-well plate 24 h prior to peptide treatments. Cells were then either treated with vehicle (dH2O) or serial dilutions of peptides. Two days following treatments MTT labelling reagent was added, and cells were allowed to form formazan crystals for 2 h. Following, 100 μl of solubilizing agent (10% SDS in 0.01M HCl) was added per well, and plates were incubated at 37° C. overnight. The optical density (OD) of the solubilized formazan was spectrophotometrically quantified using a plate reader at 570 nm with a reference at 650 nm. Data represent the mean (±standard error, SE) performed in quadruplicate, and percent cell viabilities are plotted in semi-logarithmic scale relative to water treated control.
# [1] = test system: EAC cells (Flo1, OE19, and OE33); experiment: Cell viability (MTT) of EAC cell lines; format: cell-based
# [2] = test system: chaperone activity (Fluc-DM); experiment: Fluc-DM luciferase reporter of cellular chaperone activity; format: cell-based; conditions: 20 μM peptide, overnight
# Protocol: As Frag J/J^m overexpression locks DNAJA1-Hsp70 complex, whether such interactions inhibit chaperone activity was tested. […] To understand the in vivo effects of the Frag J or different peptides in multiple cell lines including BE/EAC and p53 isogenic lines, cells were first transfected/co-transfected with Fluc-DM±Frag J constructs. Twenty-four hours post-transfection, cells were either subjected to luciferase assay or for peptide treatment studies, cells were treated with 20 μM concentrations of different peptides. After overnight incubation, cell lysates were prepared using lysis buffer provided in the luciferase assay kit in Promega luciferase assay system (cat. E1910) followed by standardized protocol as provided by the manufacturer. […] Such observation was confirmed by an in vitro chaperone activity assay using recombinant purified Hsp40-Hsp70 complex (FIG. 6D). In Fluc-DM study, loss of Fluc-DM levels following Frag J/J^m overexpression (FIG. 6E) was noted as shown using immunoblotting. Such effects were independent of p53 mutation status.
# mutant p53-R175H = experiment: Immunoblotting of mutant p53 steady state levels in CpD cells; format: cell-based; conditions: CpD cells transfected with DDK-tagged p53R175H; peptides 20 mM for 6 h
# Protocol: CpD cells overexpressing mutant p53 were transfected with DDK-tagged p53R175H mutant. Cells were then treated with indicated peptides ([…] for 6 h).
# Consequently, the effect of all thirteen peptides on mutant p53 steady state levels was tested.
# mutant p53 and EGFR = experiment: Immunoblotting of mutant p53 and EGFR levels in BE/EAC cells; format: cell-based
# mutant p53 = test system: mutant p53
# Protocol: The effect of Pep J and simvastatin treatment either alone or in combination on wild type and mutant p53 was tested in BE/EAC cells present in ten established PDOs grown in vitro. Scrambled Pep J was used as a negative control. […] Different concentrations of Pep J (10-200 μM) and simvastatin (50-1000 nM) were tested as well as different treatment time periods (24-96 hours).
# Organoid lysates were prepared for immunoblotting similar to FIG. 13G.
# [3] = test system: patient-derived organoids (PDOs); experiment: Growth and survival of patient derived organoids in vitro; format: cell-based, human
# [4] = test system: OE33, OE 19 and Flo1 esophageal adenocarcinoma (EAC) cells; experiment: Radiosensitization clonogenic assay of EAC cells; format: cell-based; conditions: 20 μM for 24 hours, then 0-8 Gy
# Protocol: OE33, OE 19 and Flo1 esophageal adenocarcinoma (EAC) cells were plated and after overnight incubation treated with 20 μM of Pep J for an additional 24 hours. Following, cells were irradiated with different doses (0, 2, 4, 6, 8 Gy) of radiation. Cells were then incubated for 24 hours prior to plating at a clonal density to perform clonogenic assays.
compound,measurement,setting,value
"PMCKVPPWRQ [Pep 27, TAT-less Pep 5]",interaction with purified DNAJA1 in peptide pull down,DNAJA1,bound effectively
CC[C@H](C)[C@H](NC(=O)[C@H](CC(=O)O)NC(=O)[C@H](CS)NC(=O)[C@H](CCCCN)NC(=O)[C@H](CS)NC(=O)[C@H](CCSC)NC(=O)[C@@H]1CCCN1C(=O)[C@H](CCC(N)=O)NC(=O)[C@@H]1CCCN1C(=O)[C@H](CCCNC(=N)N)NC(=O)[C@H](CCCNC(=N)N)NC(=O)[C@H](CCCNC(=N)N)NC(=O)[C@H](CCC(N)=O)NC(=O)[C@H](CCCNC(=N)N)NC(=O)[C@H](CCCNC(=N)N)NC(=O)[C@H](CCCCN)NC(=O)[C@H](CCCCN)NC(=O)[C@H](CCCNC(=N)N)NC(=O)CN)C(=O)N[C@@H](CC(C)C)C(=O)N[C@@H](CCCCN)C(=O)N[C@@H](C)C(=O)O [Pep 1] (H-GRKKRRQRRRPQPMCKCDILKA-OH; N-terminus and C-terminus assumed),differential activity in reducing clonogenic survival of CpD cells,CpD cells; CpD versus CpA,better differential activity
same,effect on EAC cell lines,[1],relatively more resistant
same,interaction with purified DNAJA1 in peptide pull down,DNAJA1,showed interactions
same,inhibition of chaperone activity (Fluc-DM),[2],inhibition of chaperone activity; also recorded: capable of inhibiting chaperone activity
same,mutant p53-R175H protein levels,mutant p53-R175H,highly effective; also recorded: decrease in mutant p53 levels
same,impact on p53 and EGFR levels in wild type p53 cells,mutant p53 and EGFR; CpA cells,no major impact
same,EGFR levels,mutant p53 and EGFR; CpD and OE33 cells,reduces
same,mutant p53 levels,mutant p53 and EGFR; CpD and OE33 cells,reduces
same,mutant p53 (nuclear) levels by immunofluorescence,"mutant p53; FFPE fixed and sectioned organoids, 72 h, listed as Pep J",significant reduction
same,reduction in mutant p53 levels,"mutant p53; immunoblotting of whole PDO lysis, 72 hours of treatment",50%
same,misfolded mutant p53 levels in PDOs,mutant p53; within 24 h post treatment,loss of misfolded mutant p53
same,killing of PDOs,[3]; 7 days treatment in vitro,killed PDOs
same,size of organoid growth,[3]; after 72 h of treatment,No major effect
same,radiosensitization,[4],radiosensitized
GRKKRRQRRRPQCKVPPWRQ [Pep 8],mutant p53-R175H protein levels,mutant p53-R175H,decrease in mutant p53 levels
GRKKRRQRRRPQPMCKVPPWR [Pep 7],mutant p53-R175H protein levels,mutant p53-R175H,decrease in mutant p53 levels
"LGIEVDVEDG [Pep 29, TAT-less Pep 12; Frag J amino acids 11-20]",interaction with purified DNAJA1 in peptide pull down,DNAJA1,no interaction
GRKKRRQRRRPQPMCKATPWRE [Pep 4],mutant p53-R175H protein levels,mutant p53-R175H,decrease in mutant p53 levels
GRKKRRQRRRPQLGIEVDVEDG [Pep 12],cytotoxic effect on either cell type,CpD cells; CpA and CpD cells,least cytotoxic effect; also recorded: list effects
